In the test the target is T1, CAMK2G (CaMKII gamma) (Homo sapiens, UniProt Q13555).
T1 construct: purchased Thermo Fisher Scientific (Life Technologies) SelectScreen
Nature of the test: SelectScreen LanthaScreen. It is filed as binding. The following applies: read-out: % displacement. The method, then: The in vitro kinase selectivity of NU5455 was determined using the SelectScreen Broad Assay Panel (Thermo Fisher Scientific) involving activity and binding assays (Supplemental Table 1). […] Class IA PI3Ks were measured using the p85α subunit.
Kinase [ATP] % Assay Kinase [ATP] % Assay Kinase [ATP] % Assay Kinase [ATP] % Assay
DNA-PK Km app 98.3 Z LATS2 n/a 4.7 L KIT D820E n/a 1.3 L GSK3B (GSK3 beta) Km app -2.5 Z
PIK3C3 (hVPS34) Km app 85.9 A PRKCZ (PKC zeta) Km app 4.7 Z GRK1 n/a 1.3 L BMPR2 n/a -2.5 L
PIK3C2B (PI3K-C2 beta) 10 28.9 A FGFR1 Km app 4.7 Z BRSK2 n/a 1.2 L CDC42 BPB (MRCKB) Km app -2.5 Z
SNF1LK2 Km app 26.6 Z MINK1 Km app 4.6 Z NUAK1 (ARK5) Km app 1.2 A AMPK (A2/B2/G2) n/a -2.6 L
HCK Km app 18.0 Z CSF1R (FMS) Km app 4.3 Z CDK9/cyclin K n/a 1.0 L PRKG1 Km app -2.7 Z
NEK2 Km app 17.8 Z CSNK1G3 (CK1 gamma 3) Km app 4.2 Z NUAK2 n/a 1.0 L KIT T670E n/a -2.8 L
ALK Km app 17.3 Z STK32C (YANK3) n/a 4.2 L CDK2/cyclin O n/a 0.9 L ERBB4 (HER4) Km app -2.8 Z
FGFR3 K650M n/a 16.5 L STK22D (TSSK1) Km app 4.2 Z CAMKK2 (CaMKK beta) n/a 0.9 L PLK4 n/a -2.8 L
SIK3 n/a 16.1 L TAOK3 (JIK) n/a 4.2 L FGFR3 Km app 0.9 Z GRK7 Km app -3.0 Z
LYN A Km app 15.2 Z RPS6KA4 (MSK2) Km app 4.2 Z ULK2 n/a 0.9 L MAPKAPK2 Km app -3.1 Z
BMPR1B (ALK6) n/a 14.5 L PTK2B (FAK2) Km app 4.2 Z KIT D816V n/a 0.9 L FGFR4 Km app -3.1 Z
INSRR (IRR) Km app 14.1 Z CLK2 Km app 4.1 Z CAMK1 (CaMK1) 10 0.8 A CASK n/a -3.1 L
PLK2 Km app 14.1 Z STK24 (MST3) Km app 4.1 Z PTK6 (Brk) Km app 0.7 Z GRK5 Km app -3.2 Z
PRKACA (PKA) Km app 14.0 Z CAMK1D (CaMKI delta) Km app 4.1 Z CAMK2B (CaMKII beta) Km app 0.7 Z EGFR (ErbB1) T790M Km app -3.3 Z
EIF2AK2 (PKR) n/a 13.3 L INSR Km app 4.1 Z ACVR1 (ALK2) n/a 0.7 L PAK4 Km app -3.3 Z
PRKX Km app 12.5 Z IRAK1 Km app 4.0 A ABL1 H396P n/a 0.6 L DAPK3 (ZIPK) Km app -3.4 Z
FGR Km app 12.1 Z SRC N1 Km app 3.9 Z MERTK (cMER) A708S n/a 0.6 L RET M918T n/a -3.5 L
CLK1 Km app 11.7 Z SRPK2 Km app 3.9 Z MAPKAPK5 (PRAK) Km app 0.6 Z PRKCQ (PKC theta) Km app -3.7 Z
MARK3 Km app 11.4 Z RPS6KA6 (RSK4) Km app 3.8 Z AKT1 (PKB alpha) Km app 0.5 Z CAMKK1 (CAMKKA) n/a -3.8 L
PDGFRB (PDGFR beta) Km app 11.0 Z GRK6 Km app 3.7 Z NTRK3 (TRKC) Km app 0.4 Z FLT3 D835Y Km app -3.9 Z
PRKCN (PKD3) Km app 10.7 Z PKN1 (PRK1) Km app 3.6 Z ZAP70 Km app 0.3 Z ROCK2 Km app -4.1 Z
STK16 (PKL12) n/a 10.5 L MAP3K8 (COT) 100 3.5 Z CSNK1A1 (CK1 alpha 1) Km app 0.3 Z CHUK (IKK alpha) Km app -4.2 A
FES (FPS) Km app 10.4 Z FLT4 (VEGFR3) Km app 3.5 Z MYLK (MLCK) n/a 0.2 L AXL Km app -4.2 Z
ABL1 Km app 10.4 Z GRK4 Km app 3.5 Z MKNK2 (MNK2) n/a 0.2 L PIM2 Km app -4.3 Z
MUSK Km app 10.3 Z FRK (PTK5) Km app 3.4 Z AMPK (A1/B1/G3) n/a 0.2 L PAK1 Km app -4.4 Z
MAPK1 (ERK2) Km app 10.1 Z FYN A n/a 3.3 L MAP3K2 (MEKK2) n/a 0.1 L BMPR1A (ALK3) n/a -4.4 L
BRAF 100 9.9 Z CDK1/cyclin A2 n/a 3.3 L CDK8/cyclin C n/a 0.1 L STK4 (MST1) Km app -4.4 Z
IGF1R Km app 9.7 Z KIT V559D T670I n/a 3.1 L MARK2 Km app 0.1 Z PRKCH (PKC eta) Km app -4.6 Z
MAPK14 (p38 alpha) Km app 9.7 Z SPHK2 10 3.1 A ICK n/a 0.0 L SGKL (SGK3) Km app -4.6 Z
LCK Km app 9.6 Z FGFR3 G697C n/a 3.1 L FGFR2 Km app 0.0 Z PI4KB (PI4K beta) Km app -4.7 A
MAPK11 (p38 beta) Km app 9.5 Z RIPK2 n/a 3.1 L AKT2 (PKB beta) Km app 0.0 Z PRKCE (PKC epsilon) Km app -4.9 Z
SRC Km app 9.5 Z PAK6 Km app 3.0 Z EPHB2 Km app -0.1 Z PHKG1 Km app -5.0 Z
CHEK1 (CHK1) Km app 9.3 Z LYN B Km app 3.0 Z TGFBR2 n/a -0.1 L PDGFRA D842V Km app -5.0 Z
CAMK2D (CaMKII delta) Km app 9.3 Z DAPK2 n/a 2.9 L TEK (Tie2) Km app -0.1 Z PRKG2 (PKG2) Km app -5.1 Z
PLK1 Km app 9.2 Z EPHA4 Km app 2.9 Z AURKA (Aurora A) Km app -0.1 Z TYRO3 (RSE) Km app -5.1 Z
RET Y791F Km app 9.2 Z PIK3CG (p110 gamma) Km app 2.9 A KIT D816H n/a -0.2 L TAOK2 (TAO1) Km app -5.1 Z
FLT3 Km app 9.1 Z HIPK1 (Myak) Km app 2.8 Z KIT N822K n/a -0.2 L EPHB4 Km app -5.3 Z
MAPK10 (JNK3) 100 9.0 Z ADRBK2 (GRK3) Km app 2.8 Z PRKACG (PRKAC gamma) n/a -0.2 L AURKC (Aurora C) Km app -5.4 Z
CSNK2A2 (CK2 alpha 2) Km app 8.7 Z STK17B (DRAK2) n/a 2.7 L TEK (TIE2) Y1108F n/a -0.3 L JAK1 Km app -5.7 Z […]

T1 sequence (Q13555 whole entry): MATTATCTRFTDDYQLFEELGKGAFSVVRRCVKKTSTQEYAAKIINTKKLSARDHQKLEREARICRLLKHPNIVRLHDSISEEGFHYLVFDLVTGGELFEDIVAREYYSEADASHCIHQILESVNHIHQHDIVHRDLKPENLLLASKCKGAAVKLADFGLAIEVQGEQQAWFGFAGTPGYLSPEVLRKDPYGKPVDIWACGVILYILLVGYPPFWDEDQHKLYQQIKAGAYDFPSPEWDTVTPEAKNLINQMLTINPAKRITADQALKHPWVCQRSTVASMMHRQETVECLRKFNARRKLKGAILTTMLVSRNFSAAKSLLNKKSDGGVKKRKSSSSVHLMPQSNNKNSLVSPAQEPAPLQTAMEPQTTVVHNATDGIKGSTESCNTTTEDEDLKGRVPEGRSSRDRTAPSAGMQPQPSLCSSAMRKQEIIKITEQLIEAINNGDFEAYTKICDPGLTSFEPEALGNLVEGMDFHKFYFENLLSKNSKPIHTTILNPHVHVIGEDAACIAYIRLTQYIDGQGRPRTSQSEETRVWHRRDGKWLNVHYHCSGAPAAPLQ

For `CN(C(=O)CN1CCOCC1)c1ccc2sc3c(-c4cccc5c(=O)cc(N6CC7CCC(C6)O7)oc45)cccc3c2c1` [NU5455], the inhibition at 1 µM was -0.8%.

The values above are taken from paper PMC6934184, “Selective DNA-PKcs inhibition extends the therapeutic index of localized radiotherapy and chemotherapy” (The Journal of Clinical Investigation, 2019).
